The text below walks through data of patent US7122209B2, “Oral compositions for the treatment of non-diabetic obese mammals, including humans” (Quimica Farmaceutica Bayer S.A., priority 2001, dated 2006).

Data set [1] deals with cafeteria-fed rats. In words: Diet-induced obesity (cafeteria diet) rat model, oral tungstate in drinking water. Type of data set: in vivo, male Wistar rats. An excerpt:
The so-called “cafeteria diet” consists of an offering of freshly and highly palatable supermarket food items with high fat and/or carbohydrate content in addition to standard laboratory chow. […] Moreover, it is also known that ingestion of a cafeteria diet results in increased thermogenesis and fat deposition.
(§1) For the present experiments, male Wistar rats (IFFA CREDO), weighing 0.20–0.22 kg, were caged individually in a 12:12-h light-dark cycle, temperature and humidity controlled environment. After an adaptation period of 1 week the animals were divided into two dietary groups. One group was fed standard chow diet (2.7% in fat content, type AO4 from Panlab, Barcelona, Spain) and the second group was fed a cafeteria diet (30% in fat content). The cafeteria diet consisted of a daily offering of cookies, liver pate, bacon, standard chow and whole milk supplemented with 333 g/l sucrose and 10 g/l of a mineral and vitamin complex (Gevral, Cynamid Ibérica, Madrid, Spain). All the food items were weighed and presented in excess.
An initial set of forty rats were divided into two sets of dietary conditions, control (standard diet, n=15) and cafeteria (cafeteria diet, n=25), and fed for 30 days. In order to evaluate the effects of tungstate treatment, animals from each condition were divided into two new subsets: tungstate treated and tungstate untreated groups (simply treated and untreated in the following). The treated rats were given a solution of 2 mg/ml of sodium tungstate dihydrate in distilled water.
The treatment was carried out for 32 days. Blood glucose measurements as well as blood samples were collected before (days 0–30), during (days 31–62) and at the end of the experimental period. Selective food items consumption (corrected by the amount of water lost for each) and the weight of all animals were recorded daily.
At the end of the treatment period, rats from treated (n=8) and untreated (n=7) cafeteria-fed groups and rats from both treated (n=3) and untreated (n=3) standard-fed groups were killed and several tissues (gastrocnemius muscle, intercapular brown adipose tissue (iBAT), epididimal white adipose tissue (WAT), liver, pancreas and brain) were excised, weighed, cleaned and rapidly frozen in liquid nitrogen or fixed in formol 10% for future studies.
Remaining rats (n=19) were withdrawn the tungstate treatment, but maintained the dietary conditions, in order to start a 35 day recovery period. After this time animals were killed and processed as above. Selective food items consumption (corrected by the amount of water lost for each) and the weight of all animals were recorded daily.
The data obtained in this study allowed to establish an obesity criteria. […]

Data set [2] concerns standard-fed rats. In words: Standard-fed rats, oral tungstate in drinking water. Type of data set: in vivo, male Wistar rats.
Description: as §1
An initial set of forty rats were divided into two sets of dietary conditions, control (standard diet, n=15) and cafeteria (cafeteria diet, n=25), and fed for 30 days. […]
The treatment was carried out for 32 days. […] Selective food items consumption (corrected by the amount of water lost for each) and the weight of all animals were recorded daily. […]
Remaining rats (n=19) were withdrawn the tungstate treatment, but maintained the dietary conditions, in order to start a 35 day recovery period. […] Selective food items consumption (corrected by the amount of water lost for each) and the weight of all animals were recorded daily.

Data set [3] is described as follows: Solubility in water (description). It counts as physicochemical.

For the compound `O.O.[Na+].[Na+].[O]=[W](=[O])([O-])[O-]` [sodium tungstate dihydrate], in data set [1] (cafeteria diet rat model, during weight loss), the food intake entry is “without decrease of food intake”. In addition, the body weight increase result in data set [1] (cafeteria-fed rats, 2 mg/ml sodium tungstate dihydrate in distilled water, treatment period days 31-62, vs untreated) is “significantly diminished body weight increase”; in data set [2] (2 mg/ml sodium tungstate dihydrate in distilled water, treatment period days 31-62, vs untreated), “significantly diminished body weight increase”. For the same compound, the “body weight increase difference between treated and untreated rats at day 97” value in data set [1] (cafeteria-fed rats, end of 35 day recovery period) is on record as “quite important”. The “body weight after withdrawal of treatment (reversibility)” value in data set [1] (cafeteria-fed rats, recovery period days 63-97) is on record as “started to gain body weight quickly”; in data set [2] (recovery period days 63-97), “started to gain body weight quickly”. Further, in data set [3], the solubility in water entry was “easily dissolved in water”.
